What was measured:
[1] = biological target: T1, Rat recombinant PDE10A (rPDE10A2) (Rattus norvegicus, UniProt Q9QYJ6); experiment: In vitro assay PDE10A (SPA, 3H-cAMP); format: biochemical; conditions: pIC50 corresponds to the −log IC50 expressed in mol/L; read-out: PDE10A2 pIC50 (converted)
T1 construct: inferred from the Ni metal chelate purification; made in house; host or cells: Sf9 insect cells (baculovirus)
T1 sequence (Q9QYJ6 1-794): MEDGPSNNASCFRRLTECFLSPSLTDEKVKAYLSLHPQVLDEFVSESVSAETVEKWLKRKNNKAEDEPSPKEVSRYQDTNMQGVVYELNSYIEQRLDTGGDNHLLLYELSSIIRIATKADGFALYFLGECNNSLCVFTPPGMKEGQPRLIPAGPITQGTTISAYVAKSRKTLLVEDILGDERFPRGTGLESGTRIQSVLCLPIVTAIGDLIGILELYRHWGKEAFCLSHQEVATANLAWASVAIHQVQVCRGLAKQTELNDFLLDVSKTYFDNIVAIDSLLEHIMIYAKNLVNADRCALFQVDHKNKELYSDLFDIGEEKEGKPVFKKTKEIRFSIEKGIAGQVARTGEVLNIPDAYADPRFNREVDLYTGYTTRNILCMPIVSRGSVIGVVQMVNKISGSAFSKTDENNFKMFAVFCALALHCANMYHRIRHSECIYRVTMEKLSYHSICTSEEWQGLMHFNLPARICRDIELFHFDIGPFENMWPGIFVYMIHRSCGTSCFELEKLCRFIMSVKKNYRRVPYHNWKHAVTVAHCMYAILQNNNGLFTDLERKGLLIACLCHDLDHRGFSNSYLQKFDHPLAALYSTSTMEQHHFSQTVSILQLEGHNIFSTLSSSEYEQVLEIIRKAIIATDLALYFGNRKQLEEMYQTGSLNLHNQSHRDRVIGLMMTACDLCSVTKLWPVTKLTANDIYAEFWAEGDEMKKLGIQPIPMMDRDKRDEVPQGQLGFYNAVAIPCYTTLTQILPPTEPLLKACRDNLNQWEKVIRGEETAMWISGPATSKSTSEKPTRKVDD
Protocol: Rat recombinant PDE10A (rPDE10A2) was expressed in Sf9 cells using a recombinant rPDE10A baculovirus construct. Cells were harvested after 48 h of infection and the rPDE10A protein was purified by metal chelate chromatography on Ni-sepharose 6FF. Tested compounds were dissolved and diluted in 100% DMSO to a concentration 100 fold of the final concentration in the assay. Compound dilutions (0.4 μl) were added in 384 well plates to 20 μl of incubation buffer (50 mM Tris pH 7.8, 8.3 mM MgCl2, 1.7 mM EGTA). 10 μl of rPDE10A enzyme in incubation buffer was added and the reaction was started by addition of 10 μl substrate to a final concentration of 60 nM cAMP and 0.008 μCi ^3H-cAMP. The reaction was incubated for 60 minutes at room temperature. […] After sedimentation of the beads during 30 minutes the radioactivity was measured in a Perkin Elmer Topcount scintillation counter and results were expressed as cpm. For blanc values the enzyme was omitted from the reaction and replaced by incubation buffer. Control values were obtained by addition of a final concentration of 1% DMSO instead of compound. The same assay principle is applied for the measurement of the affinity of the compound for other members of the PDE family with appropriate modifications in incubation buffer, substrate concentration, incubation time and stop solution.

[2] = tested on: apomorphine-induced stereotypy in rats; experiment: Apomorphine-induced stereotypy in rats (APO); format: in vivo; conditions: Rattus norvegicus, n.d.: found not active at threshold dose 2.5 mg/kg or 10 mg/kg (a)
Protocol: Apomorphine (1.0 mg/kg, i.v.)-induced stereotypy (compulsive sniffing, licking, chewing) was scored every 5 min over the first hour after injection of apomorphine, following a 1 hour interval pre-treatment with the test compound. The score system was: (3) pronounced, (2) moderate, (1) slight, and (0) absent.

[3] = po, * not soluble, tested orally as a suspension

Q: With `COCCCc1ccc(-c2c(C)nc3c(N4CCOCC4)ccnn23)cn1` [compound 2, 3-[6-(3-methoxypropyl)-3-pyridinyl]-2-methyl-8-(4-morpholinyl)-imidazo[1,2-b]pyridazine] as the compound, how does the IC50 [1] read?
A: The IC50 was 46.8 nM.

Q: And the ED50 ([2]; not further tested)?
A: The ED50 was greater than 2.5 mg/kg.

Q: With `COCC(C)(C)c1ccc(-c2c(C)nc3c(N4CCOCC4)ccnn23)cn1` [compound 4, 3-[6-(2-methoxy-1,1-dimethylethyl)-3-pyridinyl]-2-methyl-8-(4-morpholinyl)-imidazo[1,2-b]pyridazine] as the compound, how does the IC50 [1] read?
A: Its IC50 is 40.7 nM.

Q: And the ED50 ([2]; not further tested)?
A: Its ED50 is greater than 2.5 mg/kg.

Q: Which IC50 [1] does the source give for `CCOC(C)(C)c1ccc(-c2c(C)nc3c(N4CCOCC4)ccnn23)cn1` [compound 5, 3-[6-(1-ethoxy-1-methylethyl)-3-pyridinyl]-2-methyl-8-(4-morpholinyl)-imidazo[1,2-b]pyridazine] here?
A: Its IC50 is 19.1 nM.

Q: What about the ED50 ([2]; not further tested) of the same compound?
A: The ED50 was greater than 2.5 mg/kg.

Q: `COC(C)(C)c1ccc(-c2c(C)nc3c(N4CCOCC4)ccnn23)cn1` [compound 6, 3-[6-(1-methoxy-1-methylethyl)-3-pyridinyl]-2-methyl-8-(4-morpholinyl)-imidazo[1,2-b]pyridazine] was tested. Which IC50 [1] did it give?
A: The IC50 was 23.4 nM.

Q: What about the ED50 ([2]; not further tested) of the same compound?
A: Its ED50 is greater than 2.5 mg/kg.

Q: Which results are given for `COCCOc1ncc(-c2c(C)nc3c(-c4ccncc4)ccnn23)cc1C` [compound 8, 3-[6-(2-methoxyethoxy)-5-methyl-3-pyridinyl]-2-methyl-8-(4-pyridinyl)-imidazo[1,2-b]pyridazine]?
A: IC50 [1]: 162 nM; ED50 ([2]; not further tested): > 2.5 mg/kg

Q: Which IC50 [1] does the source give for `COCCOc1ccc(-c2c(C)nc3c(-c4cccnc4)ccnn23)cn1` [compound 9, 3-[6-(2-methoxyethoxy)-3-pyridinyl]-2-methyl-8-(3-pyridinyl)-imidazo[1,2-b]pyridazine] here?
A: The IC50 was 112 nM.

Q: And the ED50 ([2]; not further tested)?
A: Its ED50 is greater than 2.5 mg/kg.

Q: With `COCCc1ccc(-c2cnc3c(N4CCOCC4)ccnn23)cn1` [compound 11, 3-[6-(2-methoxyethyl)-3-pyridinyl]-8-(4-morpholinyl)-imidazo[1,2-b]pyridazine] as the compound, how does the IC50 [1] read?
A: The IC50 was 195 nM.

Q: And the ED50 ([2]; not further tested)?
A: Its ED50 is greater than 2.5 mg/kg.

Q: Which results are given for `COCCc1ccc(-c2c(OC)nc3c(N4CCOCC4)ccnn23)cn1` [compound 12, 2-methoxy-3-[6-(2-methoxyethyl)-3-pyridinyl]-8-(4-morpholinyl)-imidazo[1,2-b]pyridazine]?
A: IC50 [1]: 224 nM; ED50 ([2]; not further tested): > 2.5 mg/kg

Q: `COCCc1ccc(-c2c(C)nc3c(N4CCOCC4)cc(C4CC4)nn23)cn1` [compound 13, 6-cyclopropyl-3-[6-(2-methoxyethyl)-3-pyridinyl]-2-methyl-8-(4-morpholinyl)-imidazo[1,2-b]pyridazine] was tested. Which IC50 [1] did it give?
A: The IC50 was 195 nM.

Q: And the ED50 ([2]; not further tested)?
A: The ED50 was greater than 2.5 mg/kg.

Q: `COCCc1ccc(-c2c(C)nc3c(-c4ccncc4)cc(C4CC4)nn23)cn1` [compound 14, 6-cyclopropyl-3-[6-(2-methoxyethyl)-3-pyridinyl]-2-methyl-8-(4-pyridinyl)-imidazo[1,2-b]pyridazine] was tested. Which IC50 [1] did it give?
A: Its IC50 is 120 nM.

Q: And the ED50 ([2]; not further tested)?
A: Its ED50 is greater than 2.5 mg/kg.

Q: For `COCCc1ccc(-c2c(C3CC3)nc3c(N4CCOCC4)cc(C)nn23)cn1` [compound 15, 2-cyclopropyl-3-[6-(2-methoxyethyl)-3-pyridinyl]-6-methyl-8-(4-morpholinyl)-imidazo[1,2-b]pyridazine], which IC50 [1] is on record?
A: The IC50 was 302 nM.

Q: What about the ED50 [2, 3] of the same compound?
A: Its ED50 is greater than 2.5 mg/kg.

Q: How did the IC50 [1] turn out when `CCOCc1ccc(-c2c(C)nc3c(N4CCOCC4)ccnn23)cn1` [compound 17, 3-[6-(ethoxymethyl)-3-pyridinyl]-2-methyl-8-(4-morpholinyl)-imidazo[1,2-b]pyridazine] was run?
A: The IC50 was 55 nM.

Q: And the ED50 [2, 3]?
A: Its ED50 is greater than 2.5 mg/kg.

Q: What does the source list for `COCCc1ccc(-c2c(C)nc3c(-c4ccncc4)ccnn23)cn1` [compound 20, 3-[6-(2-methoxyethyl)-3-pyridinyl]-2-methyl-8-(4-pyridinyl)-imidazo[1,2-b]pyridazine]?
A: IC50 [1]: 27.5 nM; ED50 ([2]; not further tested): > 2.5 mg/kg

Q: How did the IC50 [1] turn out when `COCCc1ccc(-c2c(C)nc3c(N4CCOCC4)cc(C)nn23)cn1` [compound 23, 3-[6-(2-methoxyethyl)-3-pyridinyl]-2,6-dimethyl-8-(4-morpholinyl)-imidazo[1,2-b]pyridazine] was run?
A: The IC50 was 112 nM.

Q: And the ED50 ([2]; not further tested)?
A: Its ED50 is greater than 2.5 mg/kg.

Q: How did the IC50 [1] turn out when `COCCc1ccc(-c2c(C)nc3c(-c4ccncc4)cc(C)nn23)cn1` [compound 24, 3-[6-(2-methoxyethyl)-3-pyridinyl]-2,6-dimethyl-8-(4-pyridinyl)-imidazo[1,2-b]pyridazine] was run?
A: The IC50 was 79.4 nM.

Q: What about the ED50 ([2]; not further tested) of the same compound?
A: Its ED50 is greater than 2.5 mg/kg.

Q: How did the IC50 [1] turn out when `CCOCCc1ccc(-c2c(C)nc3c(N4CCOCC4)ccnn23)cn1` [compound 25, 3-[6-(2-ethoxyethyl)-3-pyridinyl]-2-methyl-8-(4-morpholinyl)-imidazo[1,2-b]pyridazine] was run?
A: The IC50 was 33.9 nM.

Q: And the ED50 [2, 3]?
A: Its ED50 is greater than 2.5 mg/kg.

Q: `COCCc1cc(-c2c(C)nc3c(N4CCOCC4)ccnn23)ccn1` [compound 26, 3-[2-(2-methoxyethyl)-4-pyridinyl]-2-methyl-8-(4-morpholinyl)-imidazo[1,2-b]pyridazine] was tested. Which IC50 [1] did it give?
A: The IC50 was 30.9 nM.

Q: And the ED50 ([2]; not further tested)?
A: The ED50 was greater than 2.5 mg/kg.

Q: `Cc1nc2c(N3CCOCC3)ccnn2c1-c1ccc(C2CCOCC2)nc1` [compound 27, 2-methyl-8-(4-morpholinyl)-3-[6-(tetrahydro-2H-pyran-4-yl)-3-pyridinyl]-imidazo[1,2-b]pyridazine] was tested. Which IC50 [1] did it give?
A: Its IC50 is 31.6 nM.

Q: What about the ED50 ([2]; not further tested) of the same compound?
A: Its ED50 is greater than 2.5 mg/kg.

Q: `CO[C@@H]1CCN(c2ccc(-c3c(C)nc4c(N5CCOCC5)ccnn34)cn2)C1` [compound 34, 3-[6-[(3R)-3-methoxy-1-pyrrolidinyl]-3-pyridinyl]-2-methyl-8-(4-morpholinyl)-imidazo[1,2-b]pyridazine] was tested. Which IC50 [1] did it give?
A: The IC50 was 117 nM.

Q: And the ED50 ([2]; not further tested)?
A: The ED50 was greater than 2.5 mg/kg.

Q: With `COC(C)(C)Cn1cc(-c2c(C3CC3)nc3c(N4CCOCC4)ccnn23)cn1` [compound 38, 2-cyclopropyl-3-[1-(2-methoxy-2-methylpropyl)-1H-pyrazol-4-yl]-8-(4-morpholinyl)-imidazo[1,2-b]pyridazine] as the compound, how does the IC50 [1] read?
A: Its IC50 is 28.8 nM.

Q: What about the ED50 ([2]; not further tested) of the same compound?
A: Its ED50 is greater than 2.5 mg/kg.

Q: What does the source list for `Cc1ccc(-c2c(C)nc3c(N4CCOCC4)ccnn23)cn1` [compound 39, 2-methyl-3-(6-methyl-3-pyridinyl)-8-(4-morpholinyl)-imidazo[1,2-b]pyridazine]?
A: IC50 [1]: 70.8 nM; ED50 ([2]; not further tested): > 2.5 mg/kg

Q: What does the source list for `COC(C)(C)Cc1ccc(-c2c(C)nc3c(-c4ccncc4)cc(C4CC4)nn23)cn1` [compound 40, 6-cyclopropyl-3-[6-(2-methoxy-2-methylpropyl)-3-pyridinyl]-2-methyl-8-(4-pyridinyl)-imidazo[1,2-b]pyridazine]?
A: IC50 [1]: 117 nM; ED50 ([2]; not further tested): > 2.5 mg/kg

Q: `COCCOc1ccc(-c2c(C)nc3c(N4CCOCC4)cc(C4CC4)nn23)cn1` [compound 41, 6-cyclopropyl-3-[6-(2-methoxyethoxy)-3-pyridinyl]-2-methyl-8-(4-morpholinyl)-imidazo[1,2-b]pyridazine] was tested. Which IC50 [1] did it give?
A: The IC50 was 407 nM.

Q: And the ED50 ([2]; not further tested)?
A: Its ED50 is greater than 2.5 mg/kg.

Q: For `COCCOc1cncc(-c2c(C)nc3c(N4CCOCC4)cc(C4CC4)nn23)c1` [compound 42, 6-cyclopropyl-3-[5-(2-methoxyethoxy)-3-pyridinyl]-2-methyl-8-(4-morpholinyl)-imidazo[1,2-b]pyridazine], which IC50 [1] is on record?
A: The IC50 was 93.3 nM.

Q: And the ED50 ([2]; not further tested)?
A: The ED50 was greater than 2.5 mg/kg.

Q: How did the IC50 [1] turn out when `COC(C)(C)Cc1ccc(-c2c(C)nc3c(N4CCOCC4)cc(C4CC4)nn23)cn1` [compound 43, 6-cyclopropyl-3-[6-(2-methoxy-2-methylpropyl)-3-pyridinyl]-2-methyl-8-(4-morpholinyl)-imidazo[1,2-b]pyridazine] was run?
A: The IC50 was 191 nM.

Q: What about the ED50 ([2]; not further tested) of the same compound?
A: Its ED50 is greater than 2.5 mg/kg.

Q: With `COCCOc1ccc(-c2c(C3CC3)nc3c(-c4ccncc4)ccnn23)cn1` [compound 44, 2-cyclopropyl-3-[6-(2-methoxyethoxy)-3-pyridinyl]-8-(4-pyridinyl)-imidazo[1,2-b]pyridazine] as the compound, how does the IC50 [1] read?
A: Its IC50 is 45.7 nM.

Q: What about the ED50 ([2]; not further tested) of the same compound?
A: The ED50 was greater than 2.5 mg/kg.

— US20120220581A1, “IMIDAZO[1,2-b]PYRIDAZINE DERIVATIVES AND THEIR USE AS PDE10 INHIBITORS” (Janssen-Cilag, S.A., priority 2009, published 2012)
